Test: Stability by UV spectroscopy after storage under normal conditions and stress tests
Type: physicochemical
Details: stress / rapid test conditions

Q: With `CCC(CC)COC(=O)[C@H](C)N[P@](=O)(OC[C@H]1O[C@@](C#N)(c2ccc3c(N)ncnn23)[C@H](O)[C@@H]1O)Oc1ccccc1` [RDV, remdesivir] as the compound, how does the “stability of the solution according to UV spectroscopic data” value read?
A: Its value is “limitedly stable”.

From patent US20230310467A1 (priority 2022, published 2023)
